# Results: US20230085307A1, “PYRIDAZINONE COMPOUND AND HERBICIDE” (NISSAN CHEMICAL CORPORATION, priority 2019, published 2023)
# Key:
# wild oat [1] = experiment: Test Example 5: herbicidal effect by foliage application, plastic box (Table 20, symbol I); assay type: in vivo, wild oat (Avena fatua); conditions: foliage application, AAH 320 g/ha, three weeks after application
# Summary of the method: (§1)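 Foliar spray test: emulsion formulation diluted in water to a set application rate, sprayed onto 14-day-old plants raised in diluvial soil at 25° C to 30° C under glass. Both herbicidal effect and crop effect rated visually three weeks later.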
# lambsquarters [2] = experiment: Test Example 5: herbicidal effect by foliage application, plastic box (Table 20, symbol O); assay type: in vivo, lambsquarters (Chenopodium album); conditions: foliage application, AAH 320 g/ha, three weeks after application
# Summary of the method: as §1
# Chinese sprangletop = experiment: Test Example 3: herbicidal effect by foliage application, Wagner pot (Table 18, symbol D); assay type: in vivo, chinese sprangletop (Leptochloa chinensis); conditions: 320 g/ha
# Summary of the method: (§2)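 Plants were sown in alluvial soil held under 0.1–0.5 cm standing water and grown 14 days in a greenhouse at 25–30 °C. An emulsifiable formulation, water-diluted to the set dose, was then sprayed onto the foliage, and effects were scored three weeks later using previously defined criteria.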
# barnyard grass [3] = experiment: Test Example 5: herbicidal effect by foliage application, plastic box (Table 20, symbol H); assay type: in vivo, barnyard grass (Echinochloa crus-galli); conditions: foliage application, AAH 320 g/ha, three weeks after application
# Summary of the method: as §1
# wild oat [4] = experiment: Test Example 4: herbicidal effect by soil treatment (Table 19, symbol I); assay type: in vivo, wild oat (Avena fatua); conditions: AAH 320 g/ha
# Summary of the method: (§3)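 Herbicidal effect was rated 3 weeks after treatment, using the scoring criteria of an earlier test. The compound, formulated as an emulsion and diluted in water to a set herbicide amount, had been sprayed uniformly on soil over freshly sown seeds. Growth took place in a greenhouse at 25° C. to 30° C.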
# blackgrass = experiment: Test Example 5: herbicidal effect by foliage application, plastic box (Table 20, symbol J); assay type: in vivo, blackgrass (Alopecurus myosuroides); conditions: foliage application, AAH 320 g/ha, three weeks after application
# Summary of the method: as §1
# rice flat sedge = experiment: Test Example 3: herbicidal effect by foliage application, Wagner pot (Table 18, symbol E); assay type: in vivo, rice flat sedge (Cyperus iria); conditions: 320 g/ha
# Summary of the method: as §2
# green foxtail [5] = experiment: Test Example 5: herbicidal effect by foliage application, plastic box (Table 20, symbol G); assay type: in vivo, green foxtail (Setaria viridis); conditions: foliage application, AAH 320 g/ha, three weeks after application
# Summary of the method: as §1
# southern crabgrass [6] = experiment: Test Example 5: herbicidal effect by foliage application, plastic box (Table 20, symbol F); assay type: in vivo, southern crabgrass (Digitaria ciliaris); conditions: foliage application, AAH 320 g/ha, three weeks after application
# Summary of the method: as §1
# lambsquarters [7] = experiment: Test Example 4: herbicidal effect by soil treatment (Table 19, symbol O); assay type: in vivo, lambsquarters (Chenopodium album); conditions: AAH 320 g/ha
# Summary of the method: as §3
# Italian ryegrass [8] = experiment: Test Example 4: herbicidal effect by soil treatment (Table 19, symbol K); assay type: in vivo, Italian ryegrass (Lolium multiflorum); conditions: AAH 320 g/ha
# Summary of the method: as §3
# redroot pigweed [9] = experiment: Test Example 4: herbicidal effect by soil treatment (Table 19, symbol N); assay type: in vivo, redroot pigweed (Amaranthus retroflexus); conditions: AAH 320 g/ha
# Summary of the method: as §3
# barnyard grass [10] = experiment: Test Example 3: herbicidal effect by foliage application, Wagner pot (Table 18, symbol H); assay type: in vivo, barnyard grass (Echinochloa crus-galli); conditions: 320 g/ha
# Summary of the method: as §2
# velvetleaf [11] = experiment: Test Example 4: herbicidal effect by soil treatment (Table 19, symbol M); assay type: in vivo, velvetleaf (Abutilon theophrasti); conditions: AAH 320 g/ha
# Summary of the method: as §3
# barnyard grass [12] = experiment: Test Example 4: herbicidal effect by soil treatment (Table 19, symbol H); assay type: in vivo, barnyard grass (Echinochloa crus-galli); conditions: AAH 320 g/ha
# Summary of the method: as §3
# persian speedwell [13] = experiment: Test Example 4: herbicidal effect by soil treatment (Table 19, symbol R); assay type: in vivo, Persian speedwell (Veronica persica); conditions: AAH 320 g/ha
# From the text: (§4) [Test Example 4] Herbicidal Effect Test by Soil Treatment
# (§5) Sterilized diluvial soil was placed in a plastic box having a length of 21 cm, a width of 13 cm, and a depth of 7 cm. The seeds of each of southern crabgrass, green foxtail, barnyard grass, wild oat, blackgrass, Italian ryegrass, windgrass, velvetleaf, redroot pigweed, lambsquarters, chickweed, false cleavers, persian speedwell, corn, soybean, rice, wheat, beet, and rapeseed were sowed in a spot-like manner and covered with the soil having a thickness of about 1.5 cm. Subsequently, the emulsion agent of the compound of the present invention prepared according to Formulation Example 2 was diluted with water so as to achieve a predetermined herbicide amount, and the diluted emulsion agent was uniformly applied to the surface of the soil with a small-sized spray. The plastic box was placed in a greenhouse at 25° C. to 30° C. for growth of the plants. Three weeks after the herbicide application, the effect of the herbicide on each plant was evaluated according to the criteria of Test Example 1.
# chickweed [14] = experiment: Test Example 4: herbicidal effect by soil treatment (Table 19, symbol P); assay type: in vivo, common chickweed (Stellaria media); conditions: AAH 320 g/ha
# From the text: as §4, §5
# southern crabgrass [15] = experiment: Test Example 4: herbicidal effect by soil treatment (Table 19, symbol F); assay type: in vivo, southern crabgrass (Digitaria ciliaris); conditions: AAH 320 g/ha
# Summary of the method: as §3
# velvetleaf [16] = experiment: Test Example 5: herbicidal effect by foliage application, plastic box (Table 20, symbol M); assay type: in vivo, velvetleaf (Abutilon theophrasti); conditions: foliage application, AAH 320 g/ha, three weeks after application
# Summary of the method: as §1
# Italian ryegrass [17] = experiment: Test Example 5: herbicidal effect by foliage application, plastic box (Table 20, symbol K); assay type: in vivo, Italian ryegrass (Lolium multiflorum); conditions: foliage application, AAH 320 g/ha, three weeks after application
# Summary of the method: as §1
# windgrass = experiment: Test Example 5: herbicidal effect by foliage application, plastic box (Table 20, symbol L); assay type: in vivo, windgrass (Apera spica-venti); conditions: foliage application, AAH 320 g/ha, three weeks after application
# Summary of the method: as §1
# green foxtail [18] = experiment: Test Example 4: herbicidal effect by soil treatment (Table 19, symbol G); assay type: in vivo, green foxtail (Setaria viridis); conditions: AAH 320 g/ha
# Summary of the method: as §3
# chickweed [19] = experiment: Test Example 5: herbicidal effect by foliage application, plastic box (Table 20, symbol P); assay type: in vivo, common chickweed (Stellaria media); conditions: foliage application, AAH 320 g/ha, three weeks after application
# Summary of the method: as §1
# redroot pigweed [20] = experiment: Test Example 5: herbicidal effect by foliage application, plastic box (Table 20, symbol N); assay type: in vivo, redroot pigweed (Amaranthus retroflexus); conditions: foliage application, AAH 320 g/ha, three weeks after application
# Summary of the method: as §1
# persian speedwell [21] = experiment: Test Example 5: herbicidal effect by foliage application, plastic box (Table 20, symbol R); assay type: in vivo, Persian speedwell (Veronica persica); conditions: foliage application, AAH 320 g/ha, three weeks after application
# Summary of the method: as §1
compound,measurement,setting,value
CCCC(=O)Oc1c(C)nn(C)c(=O)c1-c1c(-c2ccc(C(F)(F)F)cc2OC)sc2ccccc12 [1-156],"I: wild oat, herbicidal effect",wild oat [1],3 (Herbicidal rate of 40% or more and less than 70%)
same,"O: lambsquarters, herbicidal effect",lambsquarters [2],2 (Herbicidal rate of 20% or more and less than 40%)
same,"herbicidal effect on D (Chinese sprangletop), rating 0-5",Chinese sprangletop,3 (Herbicidal rate of 40% or more and less than 70%)
same,"H: barnyard grass, herbicidal effect",barnyard grass [3],1 (Herbicidal rate of 5% or more and less than 20%)
same,"I: wild oat, herbicidal effect rating",wild oat [4],0 (Herbicidal rate of 5% or less (almost no effect))
same,"J: blackgrass, herbicidal effect",blackgrass,0 (Herbicidal rate of 5% or less (almost no effect))
same,"herbicidal effect on E (rice flat sedge), rating 0-5",rice flat sedge,3 (Herbicidal rate of 40% or more and less than 70%)
same,"G: green foxtail, herbicidal effect",green foxtail [5],3 (Herbicidal rate of 40% or more and less than 70%)
same,"F: southern crabgrass, herbicidal effect",southern crabgrass [6],0 (Herbicidal rate of 5% or less (almost no effect))
same,"O: lambsquarters, herbicidal effect rating",lambsquarters [7],3 (Herbicidal rate of 40% or more and less than 70%)
same,"K: Italian ryegrass, herbicidal effect rating",Italian ryegrass [8],3 (Herbicidal rate of 40% or more and less than 70%)
same,"N: redroot pigweed, herbicidal effect rating",redroot pigweed [9],0 (Herbicidal rate of 5% or less (almost no effect))
same,"herbicidal effect on H (barnyard grass), rating 0-5",barnyard grass [10],3 (Herbicidal rate of 40% or more and less than 70%)
same,"M: velvetleaf, herbicidal effect rating",velvetleaf [11],0 (Herbicidal rate of 5% or less (almost no effect))
same,"H: barnyard grass, herbicidal effect rating",barnyard grass [12],0 (Herbicidal rate of 5% or less (almost no effect))
same,"R: persian speedwell, herbicidal effect rating",persian speedwell [13],0 (Herbicidal rate of 5% or less (almost no effect))
same,"P: chickweed, herbicidal effect rating",chickweed [14],0 (Herbicidal rate of 5% or less (almost no effect))
same,"F: southern crabgrass, herbicidal effect rating",southern crabgrass [15],0 (Herbicidal rate of 5% or less (almost no effect))
same,"M: velvetleaf, herbicidal effect",velvetleaf [16],0 (Herbicidal rate of 5% or less (almost no effect))
same,"K: Italian ryegrass, herbicidal effect",Italian ryegrass [17],4 (Herbicidal rate of 70% or more and less than 90%)
same,"L: windgrass, herbicidal effect",windgrass,5 (Herbicidal rate of 90% or more (almost completely withered))
same,"G: green foxtail, herbicidal effect rating",green foxtail [18],0 (Herbicidal rate of 5% or less (almost no effect))
same,"P: chickweed, herbicidal effect",chickweed [19],5 (Herbicidal rate of 90% or more (almost completely withered))
same,"N: redroot pigweed, herbicidal effect",redroot pigweed [20],3 (Herbicidal rate of 40% or more and less than 70%)
same,"R: persian speedwell, herbicidal effect",persian speedwell [21],3 (Herbicidal rate of 40% or more and less than 70%)
